Source: paper PMC8214221, “Sequence determinants in the cathelicidin LL-37 that promote inflammation via presentation of RNA to scavenger receptors” (The Journal of Biological Chemistry, 2021)
Residues, ends and D or L forms follow the SMILES beside them.

Assays:
[1] = tested on: normal human epidermal keratinocytes (NHEKs); experiment: LDH release cytotoxicity assay in keratinocytes; format: cell-based; conditions: minimal concentration giving 50% LDH release by NHEKs
How it was run: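 Normal human epidermal keratinocytes were exposed to LL-34 parent and alanine-substituted peptides. Cytotoxicity was read as LDH release in fresh culture supernatants after treatment, using a commercial kit, and reported as the minimal concentration showing toxicity.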

[2] = tested on: NHEKs, IL-6 secretion in response to U1 dsRNA; experiment: IL-6 secretion ELISA in NHEKs; format: cell-based, human; conditions: U1 dsRNA 2.5 μg/ml + peptide 2 μM, 18 h, n = 3
Experimental: Protein levels of human IL-6 were analyzed from cell supernatant with ELISA (n = 3). Corresponding MIC values of LL-34 peptides L1A–R34A against Staphylococcus aureus USA300 are shown in the heat map. B, human dermal endothelial cells (HDMECs) were treated with either U1 dsRNA (2.5 μg/ml) or a combination of U1 dsRNA (2.5 μg/ml) and LL-34 peptides (Pep 1–Pep 34 and Pep–parent LL-34) at 2 μM for 18 h. IL-6 ELISA results are shown (n = 3). Green bars denote loss of IL-6 protein secretion compared with parent control shown in red. C, helical wheel plot for LL-34. Amino acids with green circles denote specific residues where replacement with an alanine caused the loss of IL-6 secretion compared with parent LL-34 peptide in NHEKs cotreated with U1 dsRNA. D, in the helical wheel plot for LL-34, circled green amino acids indicate that a substitution caused a loss of vetting in HDMEC. E–H, NHEKs were treated with LL-34-parent peptide (LL-34-P), LL-34-F5A, LL-34-I24A, LL-34-F27A, and LL-34-L31A at 2 μM, either individually or in combination with U1 dsRNA (2.5 μg/ml) for 8 h. Gene expression of IL-6, IFNB1, TSLP, and CXCL10 was assessed with qRT-PCR. GAPDH was used as a reference gene (n = 3) (∗p < 0.05; ∗∗∗∗p < 0.0001). One way-ANOVA was used. IL-6, interleukin 6; LL-34, 34-amino acid peptide; MIC, minimum inhibitory concentration, ns, not significant.
We hypothesized that sequential replacement of each amino acid in LL-34 peptide with a neutral amino acid alanine might reveal the amino acid residues critical for its ability to induce inflammation in response to U1 dsRNA. First, we treated NHEKs and human dermal microvascular endothelial cells (HDMECs) with LL-34 parent peptide and each of the 34 mutants at 2 μM for 18 h and measured the secretion of interleukin 6 (IL-6) in the supernatant by ELISA (Fig. S1, A and B). […] We then treated both NHEKs and HDMECs with a combination of U1 dsRNA (2.5 μg/ml) and the LL-34 parent/mutant peptides at 2 μM for 18 h and measured IL-6 secretion (Fig. 1, A–C). […] A similar pattern of IL-6 release was observed when HDMECs were treated with the peptide library and U1 dsRNA (Fig. 1B).
Cell culture supernatant was frozen at −80 °C until use for analysis. ELISA was performed with sandwich ELISA kits (R&D Systems) and quantified on a Spectramax Absorbance reader (Molecular Biosystems). Data were analyzed with GraphPad.

CC[C@H](C)[C@H](NC(=O)[C@H](C)NC(=O)[C@H](CCC(N)=O)NC(=O)[C@@H](NC(=O)[C@@H](NC(=O)[C@H](CCCNC(=N)N)NC(=O)[C@H](CCCCN)NC(=O)[C@H](Cc1ccccc1)NC(=O)[C@H](CCC(=O)O)NC(=O)[C@H](CCCCN)NC(=O)CNC(=O)[C@@H](NC(=O)[C@H](CCCCN)NC(=O)[C@H](CCC(=O)O)NC(=O)[C@H](CCCCN)NC(=O)[C@H](CO)NC(=O)[C@H](CCCCN)NC(=O)[C@H](CCCNC(=N)N)NC(=O)[C@H](Cc1ccccc1)NC(=O)[C@H](Cc1ccccc1)NC(=O)[C@H](CC(=O)O)NC(=O)CNC(=O)[C@H](CC(C)C)NC(=O)[C@@H](N)CC(C)C)[C@@H](C)CC)[C@@H](C)CC)C(C)C)C(=O)N[C@@H](CCCCN)C(=O)N[C@@H](CC(=O)O)C(=O)N[C@@H](Cc1ccccc1)C(=O)N[C@@H](CC(C)C)C(=O)N[C@@H](CCCNC(=N)N)C(=O)N[C@@H](CC(N)=O)C(=O)N[C@@H](CC(C)C)C(=O)N[C@H](C(=O)N1CCC[C@H]1C(=O)N[C@@H](CCCNC(=N)N)C(=O)O)C(C)C [LL-34—R23A] (H-LLGDFFRKSKEKIGKEFKRIVQAIKDFLRNLVPR-OH)
Minimal cytotoxic concentration in NHEK (LD50) [1]: 10 µM
IL-6 protein secretion, cotreatment with U1 dsRNA, vs U1 dsRNA + LL-34 parent [2]: reduced secretion of IL-6 protein

CC[C@H](C)[C@H](NC(=O)[C@H](CCCCN)NC(=O)[C@H](CCC(=O)O)NC(=O)[C@H](CCCCN)NC(=O)[C@H](CO)NC(=O)[C@H](CCCCN)NC(=O)[C@H](CCCNC(=N)N)NC(=O)[C@H](Cc1ccccc1)NC(=O)[C@H](Cc1ccccc1)NC(=O)[C@H](CC(=O)O)NC(=O)CNC(=O)[C@H](CC(C)C)NC(=O)[C@@H](N)CC(C)C)C(=O)NCC(=O)N[C@@H](CCCCN)C(=O)N[C@@H](CCC(=O)O)C(=O)N[C@@H](Cc1ccccc1)C(=O)N[C@@H](CCCCN)C(=O)N[C@@H](CCCNC(=N)N)C(=O)N[C@H](C(=O)N[C@H](C(=O)N[C@@H](CCC(N)=O)C(=O)N[C@@H](CCCNC(=N)N)C(=O)N[C@H](C(=O)N[C@@H](CCCCN)C(=O)N[C@@H](CC(=O)O)C(=O)N[C@@H](Cc1ccccc1)C(=O)N[C@@H](CC(C)C)C(=O)N[C@@H](CCCNC(=N)N)C(=O)N[C@@H](CC(N)=O)C(=O)N[C@@H](CC(C)C)C(=O)N[C@@H](C)C(=O)N1CCC[C@H]1C(=O)N[C@@H](CCCNC(=N)N)C(=O)O)[C@@H](C)CC)C(C)C)[C@@H](C)CC [LL-34—V32A] (H-LLGDFFRKSKEKIGKEFKRIVQRIKDFLRNLAPR-OH)
Minimal cytotoxic concentration in NHEK (LD50) [1]: 10 µM
IL-6 protein secretion, cotreatment with U1 dsRNA, vs U1 dsRNA + LL-34 parent [2]: reduced secretion of IL-6 protein

CC[C@H](C)[C@H](NC(=O)[C@H](CCCCN)NC(=O)[C@H](CCC(=O)O)NC(=O)[C@H](CCCCN)NC(=O)[C@H](CO)NC(=O)[C@H](CCCCN)NC(=O)[C@H](CCCNC(=N)N)NC(=O)[C@H](C)NC(=O)[C@H](Cc1ccccc1)NC(=O)[C@H](CC(=O)O)NC(=O)CNC(=O)[C@H](CC(C)C)NC(=O)[C@@H](N)CC(C)C)C(=O)NCC(=O)N[C@@H](CCCCN)C(=O)N[C@@H](CCC(=O)O)C(=O)N[C@@H](Cc1ccccc1)C(=O)N[C@@H](CCCCN)C(=O)N[C@@H](CCCNC(=N)N)C(=O)N[C@H](C(=O)N[C@H](C(=O)N[C@@H](CCC(N)=O)C(=O)N[C@@H](CCCNC(=N)N)C(=O)N[C@H](C(=O)N[C@@H](CCCCN)C(=O)N[C@@H](CC(=O)O)C(=O)N[C@@H](Cc1ccccc1)C(=O)N[C@@H](CC(C)C)C(=O)N[C@@H](CCCNC(=N)N)C(=O)N[C@@H](CC(N)=O)C(=O)N[C@@H](CC(C)C)C(=O)N[C@H](C(=O)N1CCC[C@H]1C(=O)N[C@@H](CCCNC(=N)N)C(=O)O)C(C)C)[C@@H](C)CC)C(C)C)[C@@H](C)CC [LL-34—F6A] (H-LLGDFARKSKEKIGKEFKRIVQRIKDFLRNLVPR-OH)
Minimal cytotoxic concentration in NHEK (LD50) [1]: 5 µM
IL-6 protein secretion, cotreatment with U1 dsRNA, vs U1 dsRNA + LL-34 parent [2]: reduced secretion of IL-6 protein

CC[C@H](C)[C@H](NC(=O)[C@H](CCCCN)NC(=O)[C@H](CCC(=O)O)NC(=O)[C@H](CCCCN)NC(=O)[C@H](CO)NC(=O)[C@H](CCCCN)NC(=O)[C@H](CCCNC(=N)N)NC(=O)[C@H](Cc1ccccc1)NC(=O)[C@H](Cc1ccccc1)NC(=O)[C@H](CC(=O)O)NC(=O)CNC(=O)[C@H](CC(C)C)NC(=O)[C@@H](N)CC(C)C)C(=O)NCC(=O)N[C@@H](CCCCN)C(=O)N[C@@H](CCC(=O)O)C(=O)N[C@@H](C)C(=O)N[C@@H](CCCCN)C(=O)N[C@@H](CCCNC(=N)N)C(=O)N[C@H](C(=O)N[C@H](C(=O)N[C@@H](CCC(N)=O)C(=O)N[C@@H](CCCNC(=N)N)C(=O)N[C@H](C(=O)N[C@@H](CCCCN)C(=O)N[C@@H](CC(=O)O)C(=O)N[C@@H](Cc1ccccc1)C(=O)N[C@@H](CC(C)C)C(=O)N[C@@H](CCCNC(=N)N)C(=O)N[C@@H](CC(N)=O)C(=O)N[C@@H](CC(C)C)C(=O)N[C@H](C(=O)N1CCC[C@H]1C(=O)N[C@@H](CCCNC(=N)N)C(=O)O)C(C)C)[C@@H](C)CC)C(C)C)[C@@H](C)CC [LL-34—F17A] (H-LLGDFFRKSKEKIGKEAKRIVQRIKDFLRNLVPR-OH)
Minimal cytotoxic concentration in NHEK (LD50) [1]: 5 µM
IL-6 protein secretion, cotreatment with U1 dsRNA, vs U1 dsRNA + LL-34 parent [2]: reduced secretion of IL-6 protein

CC[C@H](C)[C@H](NC(=O)[C@H](CCCCN)NC(=O)[C@H](CCC(=O)O)NC(=O)[C@H](CCCCN)NC(=O)[C@H](CO)NC(=O)[C@H](CCCCN)NC(=O)[C@H](CCCNC(=N)N)NC(=O)[C@H](Cc1ccccc1)NC(=O)[C@H](Cc1ccccc1)NC(=O)[C@H](CC(=O)O)NC(=O)CNC(=O)[C@H](CC(C)C)NC(=O)[C@@H](N)CC(C)C)C(=O)NCC(=O)N[C@@H](CCCCN)C(=O)N[C@@H](CCC(=O)O)C(=O)N[C@@H](Cc1ccccc1)C(=O)N[C@@H](CCCCN)C(=O)N[C@@H](CCCNC(=N)N)C(=O)N[C@@H](C)C(=O)N[C@H](C(=O)N[C@@H](CCC(N)=O)C(=O)N[C@@H](CCCNC(=N)N)C(=O)N[C@H](C(=O)N[C@@H](CCCCN)C(=O)N[C@@H](CC(=O)O)C(=O)N[C@@H](Cc1ccccc1)C(=O)N[C@@H](CC(C)C)C(=O)N[C@@H](CCCNC(=N)N)C(=O)N[C@@H](CC(N)=O)C(=O)N[C@@H](CC(C)C)C(=O)N[C@H](C(=O)N1CCC[C@H]1C(=O)N[C@@H](CCCNC(=N)N)C(=O)O)C(C)C)[C@@H](C)CC)C(C)C [LL-34—I20A] (H-LLGDFFRKSKEKIGKEFKRAVQRIKDFLRNLVPR-OH)
Minimal cytotoxic concentration in NHEK (LD50) [1]: 5 µM
IL-6 protein secretion, cotreatment with U1 dsRNA, vs U1 dsRNA + LL-34 parent [2]: reduced secretion of IL-6 protein
